These results are taken from patent publication US20160002294A1, “NOVEL POLYPEPTIDES HAVING SATIETY HORMONE RELEASING ACTIVITY” (SOLAE LLC, priority 2013, published 2016).

For assay [1], the system named is STC-1 cells. Conditions: 2 h.
Procedure: To assay for GLP-1 release activity, SEQ ID NO: 1 was dissolved in Dulbecco's phosphate buffered saline (D-PBS) at 10 mg/ml. This solution was diluted to between 0.002 and 4 mg/ml with D-PBS, then added to media of STC-1 cells (passage 25 to 28) in 1:1 ratio of D-PBS and Dulbecco's Modified Eagle's Medium (DMEM-high glucose) and incubated with the cells at 37° C. (99° F.) and a CO2 level of 5% for 2 hours. The solution containing SEQ ID NO: 1 was added to cells at a variety of concentrations ranging from 0.001 to 2 mg/ml to generate a dose-response curve.
Following the incubation period, concentrations of GLP-1 released by the STC-1 cells into the media were assayed using a commercially available immunoassay kit for GLP-1 detection from Phoenix Pharmaceuticals, Burlingame, CA (catalogue number EK-028-11). Assays were performed according to the manufacturer's instructions using a standard curve covering a range of concentrations from 0.4 to 1000 pg/well. Absorbance was measured at a wavelength of 450 nm.
GLP-1 quantities obtained from each tested concentration of SEQ ID NO: 1 were plotted vs. log concentration of peptide. A dose-response curve was then generated by fitting the data with a logistic function using OriginLab graphing software.
Each variant was assayed for GLP-1 activity at 2 mg/ml using the method described in Example 2.
Assay [2] has as its system STC-1 cells. Conditions: 4 h.
Procedure: To assay for CCK release activity, SEQ ID NO: 1 was dissolved in Dulbecco's phosphate buffered saline (D-PBS) at 10 mg/ml. This solution was then diluted to between 0.002 and 4 mg/ml with d-PBS, then added to media of STC-1 cells (passage 25 to 28) in 1:1 ratio of D-PBS and Dulbecco's Modified Eagle's Medium (DMEM-high glucose) and incubated with the cells at 37° C. (99° F.) and a CO2 level of 5% for 4 hours. The solution containing SEQ ID NO: 1 was added to cells at a variety of concentrations ranging from 0.001 to 2 mg/ml to generate a dose-response curve.
Following the incubation period, concentrations of CCK released by STC-1 cells into the media were assayed using a commercially available immunoassay kit for CCK detection from Phoenix Pharmaceuticals, Burlingame, Calif. (catalogue number EK-069-04). Assays were performed according to the manufacturer's instructions using a standard curve covering a range of concentrations from 0.4 to 1000 pg/well. Absorbance was measured at a wavelength of 450 nm.
CCK quantities obtained from each tested concentration of SEQ ID NO: 1 were plotted vs. log concentration of peptide. A dose-response curve was then generated by fitting the data with a logistic function using OriginLab graphing software.
Each variant was assayed for CCK activity at 2 mg/ml using the method described in Example 1.

pEC50: −log10 of the molar value. Read-outs that look alike come from different tables or passages of the source.

The pEC50 is −log10 of the EC50, conventionally taken in molar units. With “H-TSLDFPALSWLRL-OH [SEQ ID NO: 1, NH2-TSLDFPALSWLRL-COOH]”, the values for the pEC50 in the assay on STC-1 cells [1] and with STC-1 cells [2] were 3.73 and 4.37, respectively.
